Laboratory results: US12685312B2, “Sulfonamide apyrase inhibitors” (Texas Crop Science, Inc., priority 2022, dated 2026)

Test system: apyrase
Experiment: Screen for apyrase inhibitors (Method 1, in vitro phosphate-release absorbance assay)
Type: biochemical
Settings: inhibitor conc at 1 mM stock, 1 hr room temperature, absorbance 630 nm; rounded average of two assay results
Summary of the method: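 Phosphate-release colorimetric assay (Windsor method) in 60 mM Hepes, 3 mM MgCl2, 3 mM CaCl2, 3 mM ATP, pH 6.5, with compound or DMSO control added. Released phosphate developed with ammonium molybdate and ascorbic acid/TCA, then stopped with citrate/acetic acid.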

Structure (SMILES)	% Inhibition of Apyrase [%]
O=C(Nc1cccc(F)c1)c1cccc(S(=O)(=O)Nc2ccc3c(c2)OCO3)c1 [I-265, 3-(N-(benzo[d][1,3]dioxol-5-yl)sulfamoyl)-N-(3-fluorophenyl)benzamide]	58
COc1ccccc1NS(=O)(=O)c1cccc(C(=O)Nc2cccc(C(F)(F)F)c2)c1 [I-266, 3-(N-(2-methoxyphenyl)sulfamoyl)-N-(3-(trifluoromethyl)phenyl)benzamide]	58
COc1ccc(N(C)S(=O)(=O)c2cccc(C(=O)Nc3ccc(Br)cc3)c2)cc1 [I-267, N-(4-bromophenyl)-3-(N-(4-methoxyphenyl)-N-methylsulfamoyl)benzamide]	58
COc1ccccc1NS(=O)(=O)c1cccc(C(=O)Nc2cccc([N+](=O)[O-])c2)c1 [I-268, 3-(N-(2-methoxyphenyl)sulfamoyl)-N-(3-nitrophenyl)benzamide]	58
COC(=O)C1(c2ccc(Br)cc2)CCN(C(=O)c2cccc(S(=O)(=O)Nc3ccc(Br)cc3)c2)C1 (centres unmarked) [I-269, methyl 3-(4-bromophenyl)-1-(3-(N-(4-bromophenyl)sulfamoyl)benzoyl)pyrrolidine-3-carboxylate]	57
Cc1cccc(NC(=O)c2cccc(S(=O)(=O)Nc3ccc4c(c3)OCO4)c2)c1 [I-270, 3-(N-(benzo[d][1,3]dioxol-5-yl)sulfamoyl)-N-(m-tolyl)benzamide]	57
COc1ccc([N+](=O)[O-])cc1NC(=O)c1cccc(S(=O)(=O)N2c3ccccc3CC2C)c1 (centres unmarked) [I-271, N-(2-methoxy-5-nitrophenyl)-3-((2-methylindolin-1-yl)sulfonyl)benzamide]	56
Cn1cc(O)nc1NC(=O)c1cccc(S(=O)(=O)Nc2ccc(Br)cc2)c1 [I-272, 3-(N-(4-bromophenyl)sulfamoyl)-N-(4-hydroxy-1-methyl-1H-imidazol-2-yl)benzamide]	52
Cc1ccc(NC(=O)c2cccc(S(=O)(=O)Nc3ccc(Br)cc3)c2)cc1S(=O)(=O)N1CCOCC1 [I-273, 3-(N-(4-bromophenyl)sulfamoyl)-N-(4-methyl-3-(morpholinosulfonyl)phenyl)benzamide]	52
N#CCc1ccc(NC(=O)c2cccc(S(=O)(=O)Nc3ccc4c(c3)OCO4)c2)cc1 [I-274, 3-(N-(benzo[d][1,3]dioxol-5-yl)sulfamoyl)-N-(4-(cyanomethyl)phenyl)benzamide]	48
COc1ccc([N+](=O)[O-])cc1NS(=O)(=O)c1cccc(C(=O)Nc2ccc(F)c([N+](=O)[O-])c2)c1 [I-275, N-(4-fluoro-3-nitrophenyl)-3-(N-(2-methoxy-5-nitrophenyl)sulfamoyl)benzamide]	46
COc1ccc(NC(=O)c2cccc(S(=O)(=O)Nc3ccc4c(c3)OCO4)c2)cc1 [I-276, 3-(N-(benzo[d][1,3]dioxol-5-yl)sulfamoyl)-N-(4-methoxyphenyl)benzamide]	44
COc1ccc(NC(=O)c2cccc(S(=O)(=O)Nc3ccc4c(c3)OCO4)c2)cc1OC [I-277, 3-(N-(benzo[d][1,3]dioxol-5-yl)sulfamoyl)-N-(3,4-dimethoxyphenyl)benzamide]	44
COc1ccc(NS(=O)(=O)c2cccc(C(=O)Nc3ccc(Br)cc3)c2)cc1 [I-278, N-(4-bromophenyl)-3-(N-(4-methoxyphenyl)sulfamoyl)benzamide]	43
COc1ccc(C(CNC(=O)c2cccc(S(=O)(=O)Nc3ccc(Br)cc3)c2)N(C)C)cc1 (centres unmarked) [I-279, 3-(N-(4-bromophenyl)sulfamoyl)-N-(2-(dimethylamino)-2-(4-methoxyphenyl)ethyl)benzamide]	42
COc1ccc(NC(=O)c2cccc(S(=O)(=O)Nc3ccc(Br)cc3)c2)cn1 [I-280, 3-(N-(4-bromophenyl)sulfamoyl)-N-(6-methoxypyridin-3-yl)benzamide]	40
O=C(NCC(=O)N1CCCCC1)c1cccc(S(=O)(=O)Nc2ccc(Br)cc2)c1 [I-281, 3-(N-(4-bromophenyl)sulfamoyl)-N-(2-oxo-2-(piperidin-1-yl)ethyl)benzamide]	39
NC(=O)C1CCCN(C(=O)c2cccc(S(=O)(=O)Nc3ccc(Br)cc3)c2)C1 (centres unmarked) [I-282, 1-(3-(N-(4-bromophenyl)sulfamoyl)benzoyl)piperidine-3-carboxamide]	34
O=C(Nc1ccc(N2CCOCC2)cc1)c1cccc(S(=O)(=O)Nc2ccc3c(c2)OCO3)c1 [I-283, 3-(N-(benzo[d][1,3]dioxol-5-yl)sulfamoyl)-N-(4-morpholinophenyl)benzamide]	29
O=C(NCCCN1CCOCC1)c1cccc(S(=O)(=O)Nc2ccc(Br)cc2)c1 [I-284, 3-(N-(4-bromophenyl)sulfamoyl)-N-(3-morpholinopropyl)benzamide]	27
O=C(Nc1cccc(C(F)(F)F)c1)c1cccc(S(=O)(=O)Nc2ccccc2F)c1 [I-285, 3-(N-(2-fluorophenyl)sulfamoyl)-N-(3-(trifluoromethyl)phenyl)benzamide]	17

Structure (SMILES)	% Inhibition of Apyrase [%]
O=C(NCCCCO)c1cccc(S(=O)(=O)Nc2ccc(Br)cc2)c1 [I-286, 3-(N-(4-bromophenyl)sulfamoyl)-N-(4-hydroxybutyl)benzamide]	13
CCCNC(=O)CN(CCC)C(=O)c1cccc(S(=O)(=O)Nc2ccc(Br)cc2)c1 [I-287, 3-(N-(4-bromophenyl)sulfamoyl)-N-(2-oxo-2-(propylamino)ethyl)-N-propylbenzamide]	11
N#Cc1cccc(NC(=O)c2cccc(NS(=O)(=O)c3ccc(Cl)c(Cl)c3)c2)c1 [I-316, N-(3-cyanophenyl)-3-((3,4-dichlorophenyl)sulfonamido)benzamide]	69
Cc1ccc(F)cc1S(=O)(=O)Nc1cccc(C(=O)Nc2cccc(C#N)c2)c1 [I-318, N-(3-cyanophenyl)-3-((5-fluoro-2-methylphenyl)sulfonamido)benzamide]	68
CC(=O)c1cccc(S(=O)(=O)Nc2cccc(C(=O)Nc3cccc(C(F)(F)F)c3)c2)c1 [I-319, 3-((3-acetylphenyl)sulfonamido)-N-(3-(trifluoromethyl)phenyl)benzamide]	67
Cc1cccc(NC(=O)c2cccc(NS(=O)(=O)c3ccc4c(c3)OCCO4)c2)c1C [I-320, 3-((2,3-dihydrobenzo[b][1,4]dioxine)-6-sulfonamido)-N-(2,3-dimethylphenyl)benzamide]	62
O=C(Nc1cccc(C(F)(F)F)c1)c1cccc(NS(=O)(=O)c2ccc(Cl)c(C(=O)O)c2)c1 [I-321, 2-chloro-5-(N-(3-((3-(trifluoromethyl)phenyl)carbamoyl)phenyl)sulfamoyl)benzoic acid]	57
O=C(Nc1cccc(C(F)(F)F)c1)c1cccc(NS(=O)(=O)c2ccc(Br)c(C(=O)O)c2)c1 [I-322, 2-bromo-5-(N-(3-((3-(trifluoromethyl)phenyl)carbamoyl)phenyl)sulfamoyl)benzoic acid]	47
COc1ccc(OC)c(S(=O)(=O)Nc2cccc(C(=O)Nc3cccc(C(F)(F)F)c3)c2)c1 [I-323, 3-((2,5-dimethoxyphenyl)sulfonamido)-N-(3-(trifluoromethyl)phenyl)benzamide]	42
O=C(O)CCc1ccc(S(=O)(=O)Nc2cccc(C(=O)Nc3cccc(C(F)(F)F)c3)c2)cc1 [I-324, 3-(4-(N-(3-((3-(trifluoromethyl)phenyl)carbamoyl)phenyl)sulfamoyl)phenyl)propanoic acid]	41
NC(=O)c1cc(NC(=O)c2cccc(NS(=O)(=O)c3ccc4c(c3)OCCO4)c2)ccc1Cl [I-325, N-(3-carbamoyl-4-chlorophenyl)-3-((2,3-dihydrobenzo[b][1,4]dioxine)-6-sulfonamido)benzamide]	34
O=C(Nc1cccc(C(F)(F)F)c1)c1cccc(NS(=O)(=O)c2ccccc2F)c1 [I-326, 3-((2-fluorophenyl)sulfonamido)-N-(3-(trifluoromethyl)phenyl)benzamide]	13
O=C(/C=C/c1cccc(Cl)c1)Nc1cccc(S(=O)(=O)Nc2ccc(Br)cc2)c1 [I-329, (E)-N-(3-(N-(4-bromophenyl)sulfamoyl)phenyl)-3-(3-chlorophenyl)acrylamide]	65
COc1ccc(CC(=O)Nc2cccc(S(=O)(=O)Nc3ccc(Br)cc3)c2)cc1F [I-330, N-(3-(N-(4-bromophenyl)sulfamoyl)phenyl)-2-(3-fluoro-4-methoxyphenyl)acetamide]	65
COc1ccccc1C(=O)Nc1cccc(S(=O)(=O)Nc2ccc(Br)cc2)c1 [I-331, N-(3-(N-(4-bromophenyl)sulfamoyl)phenyl)-2-methoxybenzamide]	64
N#Cc1ccc(C(=O)Nc2cccc(S(=O)(=O)Nc3ccc(Br)cc3)c2)cc1 [I-332, N-(3-(N-(4-bromophenyl)sulfamoyl)phenyl)-4-cyanobenzamide]	60
COc1ccc(C(=O)Nc2cccc(S(=O)(=O)Nc3ccc(Br)cc3)c2)cc1OC [I-333, N-(3-(N-(4-bromophenyl)sulfamoyl)phenyl)-3,4-dimethoxybenzamide]	48
C[S+]([O-])c1ccc(C(=O)Nc2cccc(S(=O)(=O)Nc3ccc(Br)cc3)c2)cc1 (centres unmarked) [I-334, N-(3-(N-(4-bromophenyl)sulfamoyl)phenyl)-4-(methylsulfinyl)benzamide]	40
Cn1cc(C(=O)Nc2cccc(S(=O)(=O)Nc3ccc(Br)cc3)c2)cn1 [I-335, N-(3-(N-(4-bromophenyl)sulfamoyl)phenyl)-1-methyl-1H-pyrazole-4-carboxamide]	30
O=C(Nc1cccc(NS(=O)(=O)c2c(Br)cc3[nH]c(=O)oc3c2Cl)c1)c1ccc(Br)cc1 [I-337, 4-bromo-N-(3-((5-bromo-7-chloro-2-oxo-2,3-dihydrobenzo[d]oxazole)-6-sulfonamido)phenyl)benzamide]	73
